Source: patent publication US10570179B2, “Substituted urea depsipeptide analogs as activators of the CLPP endopeptidase” (priority 2016, dated 2020)
In brackets after ≈: the same amount, converted by molar mass. Like-named read-outs stand apart in the source and are kept apart here. Numbered stars: 1 amine (or outer) side, 2 acyl side, 3 side chain; on linkers, the order of the positions; unused ones are H or OH. Bridge positions count the residues as written; N and C are the ends. Square brackets hold non-standard residues; d marks the D form. Peptide text beside a SMILES is read from it. * marks the point of attachment. Piperazine(2S-CO,4-Me) = CN1CCN[C@H](C(=O)O)C1; Phe(3-OMe) = COc1cccc(C[C@H](N)C(=O)O)c1; Phe(3-Me) = Cc1cccc(C[C@H](N)C(=O)O)c1; NH(4-Cl-2-F-phenyl) = Fc1cc(Cl)ccc1N*; Pro(4R-Me) = C[C@H]1CN[C@H](C(=O)O)C1; NH(4-Et-phenyl) = CCc1ccc(N*)cc1; NH(4-Me-phenyl) = Cc1ccc(N*)cc1; aThr = C[C@H](O)[C@H](N)C(=O)O; Pip = O=C(O)[C@@H]1CCCCN1; CO = O=C([*:1])[*:2]; X2 = Fc1cc(N*)ccc1Cl

What was measured:
[1] = Microsomal metabolic stability; format: in vitro ADME, mouse
Method in brief: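 CD-1 mouse liver microsomes (0.6381 mg/mL protein microsomal solution, 0.1 M potassium phosphate pH 7.4 with EDTA) were incubated with compound and an NADPH-regenerating system at 37 °C, in triplicate. Acetonitrile/warfarin quench at 0, 15, 30, 60, 120 and 240 min, then LCMS. Half-life came from a first-order least-squares fit.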

[2] = Plasma protein binding, rapid equilibrium dialysis; format: in vitro ADME, human; conditions: 10 μM
Method in brief: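 Compound spiked at 10 μM (0.1% DMSO) into human plasma, dialysed against DPBS pH 7.4 across 8 K MWCO RED membrane for 4 h at 37 °C with shaking. Both chambers quantified by LC-MS against warfarin internal standard; % free = buffer/plasma concentration ×100, % bound = 100 − % free.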

[3] = system: E. faecails; test: Minimal inhibitory concentration, microbroth dilution; format: cell-based; conditions: Enterococcus faecalis
Method in brief: (§1)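 MIC is recorded by eye as the lowest drug concentration that stops bacterial growth. Compound is serially diluted twofold in broth, starting at 200 μM final, and bacteria are added at roughly 10^5 cfu/mL. Incubation runs overnight at 37 °C under aerobic conditions, per CLSI guidance.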

[4] = system: S. aureus USA 300; test: as above; format: cell-based; conditions: Staphylococcus aureus
Method in brief: as §1

[5] = system: S. pneumoniae; test: as above; format: cell-based; conditions: Streptococcus pneumoniae, read-out: Minimal Inhibitory Concentrations (μM) S. pneumoniae
Method in brief: as §1

[6] = system: MRSA NRS70; test: as above; format: cell-based; conditions: Staphylococcus aureus
Method in brief: as §1

[7] = system: S. pyogenes; test: as above; format: cell-based; conditions: Streptococcus pyogenes, read-out: Minimal Inhibitory Concentrations (μM) S. pyogenes
Method in brief: as §1

[8] = system: B. subtilis; test: as above; format: cell-based; conditions: Bacillus subtilis, read-out: Minimal Inhibitory Concentrations (μM) B. subtilis
Method in brief: as §1

[9] = MIC, read-out: Minimal Inhibitory Concentrations (μM) E. faecails
[10] = USA300, MIC, read-out: Minimal Inhibitory Concentrations (μM) S. aureus USA 300
[11] = MIC, read-out: Minimal Inhibitory Concentrations (μM) MRSA NRS70
[12] = microsomal metabolic stability half-life, mouse liver microsomes
[13] = plasma binding, % Bound, human plasma
[14] = read-out: Minimal Inhibitory Concentrations (μM) E. faecails, MIC
[15] = USA300, read-out: Minimal Inhibitory Concentrations (μM) S. aureus USA 300, MIC
[16] = read-out: Minimal Inhibitory Concentrations (μM) MRSA NRS70, MIC

For Cc1cccc(C[C@H](NC(=O)Nc2ccc(Cl)c(F)c2)C(=O)N[C@H]2COC(=O)[C@@H]3C[C@@H](C)CN3C(=O)[C@H](C)NC(=O)[C@@H]3CN(C)CCN3C(=O)[C@@H]3CCCN3C2=O)c1 [Compound 14, (S)-2-(3-(4-CHLORO-3-FLUOROPHENYL)UREIDO)-3-(M-TOLYL)-N-((6AS,12S,15AS,17R,21S,23AS)-2,17,21-TRIMETHYL-6,11,15,20,23-PENTAOXOOCTADECAHYDRO-2H,6H,11H,15H-PYRAZINO[2,1-I]DIPYRROLO[2,1-C:2′,1′-L][1]OXA[4,7,10,13]TETRAAZACYCLOHEXADECIN-12-YL)PROPANAMIDE] ({X2-CO}-[Phe(3-Me)]SP[Piperazine(2S-CO,4-Me)]A[Pro(4R-Me)]; ester 2-C), the “Mouse” value ([1]; CD-1, mouse, pH 7.4) was 3.15 ± 0.26 h, the Human ([2]; human, 4 h, pH 7.4) was 99.1 ± 0.2% and the MIC [3, 9] was 1.25 µM (≈ 1.03 µg/mL). For the same compound, the MIC [4, 10] was 5 µM (≈ 4.13 µg/mL), the MIC ([5]; MIC) was 0.625 µM (≈ 0.516 µg/mL) and the MIC [6, 11] was 2.5 µM (≈ 2.06 µg/mL). It also gave an MIC ([7]; MIC) of 1.25 µM (≈ 1.03 µg/mL).

For COc1cccc(C[C@H](NC(=O)Nc2ccc(Cl)cc2F)C(=O)N[C@H]2COC(=O)[C@@H]3C[C@@H](C)CN3C(=O)[C@H](C)NC(=O)[C@@H]3CN(C)CCN3C(=O)[C@@H]3CCCN3C2=O)c1 [Compound 19, (S)-2-(3-(4-CHLORO-2-FLUOROPHENYL)UREIDO)-3-(3-METHOXYPHENYL)-N-((6AS,12S,15AS,17R,21S,23AS)-2,17,21-TRIMETHYL-6,11,15,20,23-PENTAOXOOCTADECAHYDRO-2H,6H,11H,15H-PYRAZINO[2,1-I]DIPYRROLO[2,1-C:2′,1′-L][1]OXA[4,7,10,13]TETRAAZACYCLOHEXADECIN-12-YL)PROPANAMIDE] ({NH(4-Cl-2-F-phenyl)-CO}-[Phe(3-OMe)]SP[Piperazine(2S-CO,4-Me)]A[Pro(4R-Me)]; ester 2-C), the “Mouse” value ([1]; CD-1, mouse, pH 7.4) was 0.80 ± 0.05 h, the Human ([2]; human, 4 h, pH 7.4) was 98.9 ± 0.2% and the MIC [3, 9] was 10 µM (≈ 8.41 µg/mL). For the same compound, the MIC [4, 10] was 10 µM (≈ 8.41 µg/mL), the MIC ([5]; MIC) was 2.5 µM (≈ 2.1 µg/mL) and the MIC [6, 11] was 10 µM (≈ 8.41 µg/mL). It also gave an MIC ([7]; MIC) of 10 µM (≈ 8.41 µg/mL).

For Cc1ccc(NC(=O)N[C@@H](Cc2cccc(C)c2)C(=O)N[C@@H]2C(=O)N3CCC[C@H]3C(=O)N3CCCC[C@H]3C(=O)N[C@@H](C)C(=O)N3C[C@H](C)C[C@H]3C(=O)O[C@H]2C)cc1 [Compound 1, (S)-3-(M-TOLYL)-2-(3-(P-TOLYL)UREIDO)-N-((2R,6S,8AS,14AS,20S,21S,23AS)-2,6,21-TRIMETHYL-5,8,14,19,23-PENTAOXOOCTADECAHYDRO-1H,5H,14H,19H-PYRIDO[2,1-I]DIPYRROLO[2,1-C:2′,1′-L][1]OXA[4,7,10,13]TETRAAZACYCLOHEXADECIN-20-YL)PROPANAMIDE] ({NH(4-Me-phenyl)-CO}-[Phe(3-Me)][aThr]P[Pip]A[Pro(4R-Me)]; ester 2-C), the “Mouse” value [1, 12] was 5.22 h, the Human [2, 13] was 98.5% and the MIC [3, 14] was 1.25 µM (≈ 0.982 µg/mL). The MIC [4, 15] was < 0.098 µM, the MIC [6, 16] was 0.156 µM (≈ 0.123 µg/mL) and the MIC [8] was 0.313 µM (≈ 0.246 µg/mL). It also gave an MIC [7] of 0.313 µM (≈ 0.246 µg/mL).

In the case of Cc1ccc(NC(=O)N[C@@H](Cc2cccc(C)c2)C(=O)N[C@H]2COC(=O)[C@@H]3C[C@@H](C)CN3C(=O)[C@H](C)NC(=O)[C@@H]3CN(C)CCN3C(=O)[C@@H]3CCCN3C2=O)cc1 [Compound 15, (S)-3-(M-TOLYL)-2-(3-(P-TOLYL)UREIDO)-N-((6AS,12S,15AS,17R,21S,23AS)-2,17,21-TRIMETHYL-6,11,15,20,23-PENTAOXOOCTADECAHYDRO-2H,6H,11H,15H-PYRAZINO[2,1-I]DIPYRROLO[2,1-C:2′,1′-L][1]OXA[4,7,10,13]TETRAAZACYCLOHEXADECIN-12-YL)PROPANAMIDE] ({NH(4-Me-phenyl)-CO}-[Phe(3-Me)]SP[Piperazine(2S-CO,4-Me)]A[Pro(4R-Me)]; ester 2-C), the “Mouse” value [1, 12] is reported as 2.28 ± 0.16 h, the Human [2, 13] is reported as 95.2 ± 1.5% and the MIC [3, 14] is reported as 1.25 µM (≈ 0.984 µg/mL). The MIC [4, 15] was 5 µM (≈ 3.93 µg/mL), the MIC [5] was 0.313 µM (≈ 0.246 µg/mL) and the MIC [6, 16] was 2.5 µM (≈ 1.97 µg/mL). It also gave an MIC [7] of 0.313 µM (≈ 0.246 µg/mL).

In the case of CCc1ccc(NC(=O)N[C@@H](Cc2cccc(C)c2)C(=O)N[C@H]2COC(=O)[C@@H]3C[C@@H](C)CN3C(=O)[C@H](C)NC(=O)[C@@H]3CN(C)CCN3C(=O)[C@@H]3CCCN3C2=O)cc1 [Compound 16, (S)-2-(3-(4-ETHYLPHENYL)UREIDO)-3-(M-TOLYL)-N-((6AS,12S,15AS,17R,21S,23AS)-2,17,21-TRIMETHYL-6,11,15,20,23-PENTAOXOOCTADECAHYDRO-2H,6H,11H,15H-PYRAZINO[2,1-I]DIPYRROLO[2,1-C:2′,1′-L][1]OXA[4,7,10,13]TETRAAZACYCLOHEXADECIN-12-YL)PROPANAMIDE] ({NH(4-Et-phenyl)-CO}-[Phe(3-Me)]SP[Piperazine(2S-CO,4-Me)]A[Pro(4R-Me)]; ester 2-C), the “Mouse” value ([1]; CD-1, mouse, pH 7.4) is reported as 1.80 ± 0.09 h, the Human ([2]; human, 4 h, pH 7.4) is reported as 98.5 ± 0.3% and the MIC [3, 9] is reported as 0.156 µM (≈ 0.125 µg/mL). For the same compound, the MIC [4, 10] was 0.625 µM (≈ 0.501 µg/mL), the MIC ([5]; MIC) was 0.078 µM (≈ 0.0625 µg/mL) and the MIC [6, 11] was 0.313 µM (≈ 0.251 µg/mL). For the same compound, the MIC ([7]; MIC) was 0.156 µM (≈ 0.125 µg/mL).
